The results in this text go back to patent publication US10545133B2, “Molecular signatures of invasive cancer subpopulations” (The Johns Hopkins University, priority 2013, dated 2020).

Format in all cases: cell-based, mouse
Test [1] concerns MMTV-PyMT tumor organoids. As to the kind of experiment: Mitosis (pH3) and K14 staining of tumor organoids treated with a mitosis inhibitor. Particulars: aphidicolin 10 mM from day 0, 3D collagen matrix. The source says: FIG. 4. Lumenal Tumor Cells Acquire Markers of Basal Differentiation (A) Mouse mammary tumor organoids grown in 3D collagen matrix stained with K8 and K14. (B) Bar graph of percentage of tumor organoids with K8 or K14 intensity equal to or greater than 1+ as a function of time. K14 and K8 intensity was quantified into 0 (no or few), 1 (intermediate), or 2 (bright) K14 signal. Data are presented as mean±SD. For K14: n=719 organoids from 5-8 mice per day; for K8: n=269 organoids from 3 mice per day. (C) Mammary tumor organoids grown in 3D collagen matrix stained with p63 and DAPI. (D) The percentage of organoids with nuclei positive for p63 was counted. Data are presented as mean±SD. n=114 organoids from 2 mice per day. (E) Invasion was quantified by scoring protrusive morphology of cancer cells in contact with the ECM. Data are presented as mean±SD. n=916 organoids from 4-7 mice per day. (F) Tumor organoids treated from day 0 with DMSO vehicle or a mitosis inhibitor (aphidicolin 10 mM) stained with K14, pH3, and DAPI. […] (H) K14 intensity scored in vehicle or aphidicolin. K14 intensity was quantified into 0 (no or few), 1 (intermediate), or 2 (bright) K14 signal. n=110 organoids from 2 mice per condition. […] All p values were determined by two-sided t test. *p<0.05. **p<0.01. ***p<0.001. […]

The test system of the next test is K14+ cells. As to the kind of experiment: Doxorubicin challenge of mammary carcinoma cells. The settings on record: challenge with doxorubicin.
The subject of test [2] is MMTV-PyMT tumor organoids. The experiment in a line: Oxytocin contractility experiment. The source says:
FIG. 8. Leader Cells Are Molecularly Distinct from Normal Differentiated Myoepithelial Cells and Coexpress Lumenal Epithelial Markers, Related to FIG. 1 (A-C) Leader cells from MMTV-PyMT tumor organoids stained with K14 and K8 (A), K8, p63, and phalloidin (B), or E-cadherin (Ecad) and phalloidin (C). Arrow in (A), a K14+K8+ cell. Arrow in (B), a K8+p63+ cell. 75% of leaders were K14+K8+(n=21/28) and 34% of leaders were K8+p63+(n=22/65). Blue arrows in (C), Ecadherin staining at cell-cell contacts between leader and follower cells. […] Data presented as mean±sd. n=3 normal and tumor organoids. **p<0.01, *p<0.05; p values determined by two-sided t test. […] (G) The reduction in organoid area calculated in (F) provides a proxy for oxytocin-dependent contractility. Organoids were incubated in oxytocin at the specified doses, and the change in area was determined. […] N=23-30 organoids per condition from 3 independent experiments. *p<0.005, […]; p values determined by two-sided t test. […]
Normal mammary epithelial organoids and MMTV-PyMT tumor organoids were embedded in 3D collagen I matrix and cultured in FGF2 organoid media for 4 days. Normal and tumor organoids were then monitored by DIC time-lapse microscopy collecting images every 5 min. […]

In the case of `C[C@@]1(CO)[C@H](O)CC[C@@]2(C)[C@H]1CC[C@H]1C[C@@H]3C[C@@]12CC[C@]3(O)CO` [aphidicolin], in test [1], the “increase in K14+ cells (K14 intensity)” value was “did not prevent an increase in K14+ cells” and the “mitosis (pH3+ nuclei per tumor organoid)” value is listed as “blocked mitosis completely”. In the case of `COc1cccc2c1C(=O)c1c(O)c3c(c(O)c1C2=O)C[C@@](O)(C(=O)CO)C[C@@H]3O[C@H]1C[C@H](N)[C@H](O)[C@H](C)O1` [doxorubicin], the “representation of K14+ cells among the intrinsically resistant cells” value with K14+ cells was “strongly overrepresented”. Regarding `CC[C@H](C)[C@@H]1NC(=O)[C@H](Cc2ccc(O)cc2)NC(=O)[C@@H](N)CSSC[C@@H](C(=O)N2CCC[C@H]2C(=O)N[C@@H](CC(C)C)C(=O)NCC(N)=O)NC(=O)[C@H](CC(N)=O)NC(=O)[C@H](CCC(N)=O)NC1=O` [oxytocin], the “time of maximal contraction postincubation” value in test [2] (normal mammary and MMTV-PyMT tumor organoids, oxytocin at nM concentrations) is given as 25 min. The “contraction of leader cells in response to oxytocin” value in test [2] (oxytocin 5 and 50 nM, 3D collagen I, day 4) is reported as “did not contract”.
